This note sets out measurements from US9944608B2, “Herbicidal pyridazinone derivatives” (Syngenta Participations AG, priority 2014, dated 2018).

Holding throughout (test): B1 Post-emergence efficacy, glasshouse pot test
Holding throughout (type): in vivo
Details in all cases: post-emergence application, 1000 g/ha, evaluated after 13 days

The test system of experiment [1] is Echinochloa crus-galli (ECHCG). The protocol: (§1) B1 Post-Emergence Efficacy Seeds of a variety of test species are sown in standard soil in pots:—Solanum nigrum (SOLNI), Amaranthus retoflexus (AMARE), Setaria faberi (SETFA), Alopecurus myosuroides (ALOMY), Echinochloa crus-galli (ECHCG), Ipomoea hederacea (IPOHE), Lolium perenne (LOLPE). After 8 days cultivation (post-emergence) under controlled conditions in a glasshouse (at 24/16° C., day/night; 14 hours light; 65% humidity), the plants are sprayed with an aqueous spray solution derived from the formulation of the technical active ingredient in acetone/water (50:50) solution containing 0.5% Tween 20 (polyoxyethelyene sorbitan monolaurate, CAS RN 9005-64-5). Compounds are applied at 1000 g/ha. The test plants are then grown in a glasshouse under controlled conditions in a glasshouse (at 24/16° C., day/night; 14 hours light; 65% humidity) and watered twice daily. After 13 days, the test is evaluated for the percentage damage caused to the plant. The biological activities are assessed on a five point scale (5=80-100%; 4=60-79%; 3=40-59%; 2=20-39%; 1=0-19%). A blank value in the table is indicative that the compound was not tested on that species.

The test system of the next experiment is Setaria faberi (SETFA). The method, then: as §1
The test system of experiment [2] is Amaranthus retoflexus (AMARE). The method, then:
as §1

A further experiment has as its system Solanum nigrum (SOLNI). The method, then:
as §1

Experiment [3] concerns Alopecurus myosuroides (ALOMY). The method, then:
as §1

For experiment [4], the system named is Ipomoea hederacea (IPOHE). The protocol:
as §1

Another experiment has as its system Lolium perenne (LOLPE). The method, then: as §1

In the case of `CC1=NN(C)C(=O)C(c2c(Cl)ccc(Cl)c2OCc2ccccc2)C1=O` (stereo not drawn) [Compound 1.001, 4-(2-benzyloxy-3,6-dichloro-phenyl)-2,6-dimethyl-pyridazine-3,5-dione], the “ECHCG: percentage damage caused to the plant (five point scale)” value in experiment [1] was 5 (5=80-100%). Further, the “SETFA: percentage damage caused to the plant (five point scale)” value in the experiment with Setaria faberi (SETFA) was 5 (5=80-100%). In addition, in experiment [2], the “AMARE: percentage damage caused to the plant (five point scale)” value is on record as 5 (5=80-100%). The “SOLNI: percentage damage caused to the plant (five point scale)” value with Solanum nigrum (SOLNI) is 5 (5=80-100%). The “ALOMY: percentage damage caused to the plant (five point scale)” value in experiment [3] is reported as 4 (4=60-79%). Also, the “IPOHE: percentage damage caused to the plant (five point scale)” value in experiment [4] is listed as 5 (5=80-100%).
As to `CSc1nn(C)c(=O)c(-c2c(F)ccc(Cl)c2OCc2ccccc2)c1O` [Compound 1.084], in experiment [1], the “ECHCG: percentage damage caused to the plant (five point scale)” value was 1 (1=0-19%). In the experiment on Setaria faberi (SETFA), the “SETFA: percentage damage caused to the plant (five point scale)” value is 2 (2=20-39%). Also, in experiment [2], the “AMARE: percentage damage caused to the plant (five point scale)” value is listed as 3 (3=40-59%). For the same compound, the “SOLNI: percentage damage caused to the plant (five point scale)” value in the experiment with Solanum nigrum (SOLNI) is on record as 5 (5=80-100%). Besides, the “LOLPE: percentage damage caused to the plant (five point scale)” value in the experiment on Lolium perenne (LOLPE) is 4 (4=60-79%). Also, the “IPOHE: percentage damage caused to the plant (five point scale)” value in experiment [4] is 5 (5=80-100%).
